Measurements as given in US20090197856A1, “ANTIVIRAL COMPOUNDS” (Genelabs Technologies, Inc., priority 2007, published 2009).

Molecular target: T1, NS5B (Hepatitis C virus genotype 1b, UniProt Q9WMX2)
T1 construct: 3 nM NS5B, 20 nM polyC RNA template
Assay: Polymerase assay, incorporation of radiolabeled GTP with biotinylated oligoG13 primer and polycytidylic acid RNA template
Type: biochemical
Details: polyC RNA template, biotin-oligoG13 primer, tritiated GTP, 3 nM NS5B, 30° C., 2 hours
Description: The polymerase activity was also assayed by measuring incorporation of radiolabeled GTP into an RNA product using a biotinylated oligoG13 primer with a polycytidylic acid RNA template. Typically, the assay mixture (40 μL) contains 50 mM HEPES (pH 7.3), 2.5 mM magnesium acetate, 2 mM sodium chloride, 37.5 mM potassium acetate, 5 mM DTT, 0.4 U/mL RNasin, 2.5% glycerol, 3 nM NS5B, 20 nM polyC RNA template, 20 nM biotin-oligoG13 primer, and 0.2 μM tritiated guanosine triphosphate. Test compounds were initially dissolved and diluted in 100% DMSO and further diluted into aqueous buffer, producing a final concentration of 5% DMSO. Typically, compounds were tested at concentrations between 0.2 nM and 10 μM. Reactions were started with addition of tritiated guanosine triphosphate and allowed to continue at 30° C. for 2 hours. Reactions were quenched with 100 μL stop buffer containing 10 mM EDTA and 1 μg/mL streptavidin-coated scintillation proximity beads. Reaction plates were incubated at 4° C. for 10 hours and then incorporation of radioactivity was determined by scintillation counting. The table below lists the IC50 values of compounds determined using this procedure.

T1 sequence (Q9WMX2 2420-3010): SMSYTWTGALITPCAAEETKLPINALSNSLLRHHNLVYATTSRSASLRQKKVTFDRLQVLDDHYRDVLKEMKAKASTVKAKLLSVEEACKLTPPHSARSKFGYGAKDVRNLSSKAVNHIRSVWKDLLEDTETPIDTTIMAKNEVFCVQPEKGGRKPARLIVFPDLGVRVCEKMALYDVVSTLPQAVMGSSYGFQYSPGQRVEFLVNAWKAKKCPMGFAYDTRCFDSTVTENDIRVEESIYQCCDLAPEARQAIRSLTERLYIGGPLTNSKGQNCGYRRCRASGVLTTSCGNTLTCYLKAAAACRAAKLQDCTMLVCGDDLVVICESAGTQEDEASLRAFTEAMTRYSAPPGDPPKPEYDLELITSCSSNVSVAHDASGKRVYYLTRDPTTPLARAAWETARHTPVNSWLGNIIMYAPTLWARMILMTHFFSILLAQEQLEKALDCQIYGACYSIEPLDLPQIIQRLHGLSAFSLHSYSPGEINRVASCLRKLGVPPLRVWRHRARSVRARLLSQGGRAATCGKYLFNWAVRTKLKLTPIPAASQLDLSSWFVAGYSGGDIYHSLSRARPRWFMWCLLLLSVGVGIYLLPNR

| Structure (SMILES) | IC50 |
| --- | --- |
| NCCC1CCN2CCn3c(c(C4CCCCC4)c4ccc(C(=O)O)cc43)-c3cccc1c32 (centres unmarked) [Compound 301, 4-(2-aminoethyl)-15-cyclohexyl-5,6,8,9-tetrahydro-4H-indolo[1′,2′:4,5][1,4]diazepino[6,7,1-ij]quinoline-12-carboxylic acid] | 3.35 nM |
| NCC[C@H]1CCN2CCn3c(c(C4CCCCC4)c4ccc(C(=O)O)cc43)-c3cccc1c32 [Compound 303] | 6.81 nM |
| O=C(O)c1ccc2c(C3CCCCC3)c3n(c2c1)CCCn1cc(CNS(=O)(=O)C2CC2)c2cccc-3c21 [Compound 304, 12-Cyclohexyl-1-{[(cyclopropylsulfonyl)amino]methyl}-5,6-dihydro-4H-[1,5]diazocino[1,2-a:5,4,3-h′i′]diindole-9-carboxylic acid] | 9 nM |
| CCN(CC)Cc1c(C(=O)N(C)C)n2c3c(cccc13)-c1c(C3CCCCC3)c3ccc(C(=O)O)cc3n1CCC2 [Compound 306] | 8 nM |
| CN(C)C(=O)c1c(CN2CCCCC2)c2cccc3c2n1CCCn1c-3c(C2CCCCC2)c2ccc(C(=O)O)cc21 [Compound 307] | 4 nM |
| CN(C)C(=O)c1c(CNC2CCOCC2)c2cccc3c2n1CCCn1c-3c(C2CCCCC2)c2ccc(C(=O)O)cc21 [Compound 308] | 7 nM |
| CN(C)C(=O)c1c(CN2CCCC2)c2cccc3c2n1CCCn1c-3c(C2CCCCC2)c2ccc(C(=O)O)cc21 [Compound 309] | 6 nM |
| CN(C)C(=O)c1c(CNS(=O)(=O)C2CC2)c2cccc3c2n1CCCn1c-3c(C2CCCCC2)c2ccc(C(=O)O)cc21 [Compound 310] | 6 nM |
| CN(C)C(=O)c1c(CN2CCOCC2)c2cccc3c2n1CCCn1c-3c(C2CCCCC2)c2ccc(C(=O)O)cc21 [Compound 311] | 5 nM |
| CCN(C)Cc1c(C(=O)N(C)C)n2c3c(cccc13)-c1c(C3CCCCC3)c3ccc(C(=O)O)cc3n1CC2 [Compound 312] | 4 nM |
| CC(C)N1CCCC[C@H]1C(=O)N(C)Cc1c(C(=O)N(C)C)n2c3c(cccc13)-c1c(C3CCCCC3)c3ccc(C(=O)O)cc3n1CCC2 [Compound 313] | 2 nM |
| CN(C)C(=O)c1c(CN(C)C(=O)C(C)(C)N2CCCC2)c2cccc3c2n1CCCn1c-3c(C2CCCCC2)c2ccc(C(=O)O)cc21 [Compound 314] | 11 nM |
| CCN(C)Cc1c(C(=O)N(C)C)n2c3c(cccc13)-c1c(C3CCCCC3)c3ccc(C(=O)NS(=O)(=O)N(C)C)cc3n1CCC2 [Compound 315] | 2 nM |
| CCN(C)Cc1c(C(=O)N(C)C)n2c3c(cccc13)-c1c(C3CCCCC3)c3ccc(C(=O)NS(=O)(=O)C4CC4)cc3n1CCC2 [Compound 316] | 5 nM |
| CCN(C)Cc1c(C(=O)N(CC)CC)n2c3c(cccc13)-c1c(C3CCCCC3)c3ccc(C(=O)O)cc3n1CCC2 [Compound 317] | 5 nM |
| CCN(C)Cc1c(C(=O)N2CCN(S(C)(=O)=O)CC2)n2c3c(cccc13)-c1c(C3CCCCC3)c3ccc(C(=O)O)cc3n1CCC2 [Compound 318] | 9 nM |
| CCN(C)Cc1c(C(=O)NC2CC2)n2c3c(cccc13)-c1c(C3CCCCC3)c3ccc(C(=O)O)cc3n1CCC2 [Compound 319] | 11 nM |
| CCN(C)Cc1c(C(=O)N2CCCC2)n2c3c(cccc13)-c1c(C3CCCCC3)c3ccc(C(=O)O)cc3n1CCC2 [Compound 320] | 3 nM |
| CCN(C)Cc1c(C(=O)NS(=O)(=O)N(C)C)n2c3c(cccc13)-c1c(C3CCCCC3)c3ccc(C(=O)O)cc3n1CCC2 [Compound 321] | 8 nM |
| CCN(C)Cc1c(C(=O)NS(=O)(=O)C2CC2)n2c3c(cccc13)-c1c(C3CCCCC3)c3ccc(C(=O)O)cc3n1CCC2 [Compound 322] | 9 nM |
| CCN(C)Cc1c(C(=O)N(C)Cc2ccccc2)n2c3c(cccc13)-c1c(C3CCCCC3)c3ccc(C(=O)O)cc3n1CCC2 [Compound 323] | 9 nM |
| CCN(C)Cc1c(C(=O)N2CCC(N(C)C)CC2)n2c3c(cccc13)-c1c(C3CCCCC3)c3ccc(C(=O)O)cc3n1CCC2 [Compound 324] | 6 nM |
| CCN(C)Cc1c(C(=O)N2CCN(C(C)=O)CC2)n2c3c(cccc13)-c1c(C3CCCCC3)c3ccc(C(=O)O)cc3n1CCC2 [Compound 325] | 7 nM |
| CCN(C)Cc1c(C(=O)N2CC[C@@H](NC(C)=O)C2)n2c3c(cccc13)-c1c(C3CCCCC3)c3ccc(C(=O)O)cc3n1CCC2 [Compound 326] | 6 nM |
| NC1CCN2CCn3c(c(C4CCCCC4)c4ccc(C(=O)O)cc43)-c3ccc(F)c1c32 (centres unmarked) [Compound 448] | 5.05 nM |
| CC1(C)C(=O)N2CCn3c(c(C4CCCCC4)c4ccc(C(=O)O)cc43)-c3cccc(c32)[C@@H]1N [Compound 496, (4S)-4-amino-15-cyclohexyl-5,5-dimethyl-6-oxo-5,6,8,9-tetrahydro-4H-indolo[1′,2′:4,5][1,4]diazepino[6,7,1-ij]quinoline-12-carboxylic Acid] | 200 nM |
| CC1(C)CN2CCn3c(c(C4CCCCC4)c4ccc(C(=O)O)cc43)-c3cccc(c32)[C@@H]1N [Compound 497, (4R)-4-amino-15-cyclohexyl-5,5-dimethyl-5,6,8,9-tetrahydro-4H-indolo[1′,2′:4,5][1,4]diazepino[6,7,1-ij]quinoline-12-carboxylic Acid] | 23 nM |
| CC1(C)C(=O)N2CCn3c(c(C4CCCCC4)c4ccc(C(=O)O)cc43)-c3cccc(c32)[C@H]1N [Compound 498] | 20 nM |
| CC1(C)CN2CCn3c(c(C4CCCCC4)c4ccc(C(=O)O)cc43)-c3cccc(c32)[C@H]1N [Compound 499] | 4 nM |
